This passage reports Assay (II) (pH 4.0) Lag time (hours) and EC50 results from US20130053310A1 (NOVO NORDISK A/S, priority 2010, published 2013).

By EC50 is commonly meant the midpoint of the concentration-response curve. A low value points to greater potency.

The nature of series [1]: Assay (II) ThT fibrillation assay for physical stability. The series is classed as physicochemical. The following applies: ThT fibrillation assay, pH 4.0, 250 μM, 10 mM glycylglycine, 45 hours at 37° C., shaking 960 rpm. An excerpt: This has traditionally been measured by visual inspection of the sample. However, that kind of measurement is very subjective and depending on the observer. Therefore, the application of a small molecule indicator probe is much more advantageous.
Here, F is the ThT fluorescence at the time t. The constant t0 is the time needed to reach 50% of maximum fluorescence.
Few of those intermediates nucleate to form a template onto which further intermediates may assembly and the fibrillation proceeds. The lag-time corresponds to the interval in which the critical mass of nucleus is built up and the apparent rate constant is the rate with which the fibril itself is formed.
Samples were prepared freshly before each assay. […] The pH of the sample was adjusted to the desired value using appropriate amounts of concentrated NaOH and HCl. Thioflavin T was added to the samples from a stock solution in H2O to a final concentration of 1 μM.
The plate was sealed with Scotch Pad (Qiagen).
Each run was initiated by incubating the plate at the assay temperature for 10 min. The plate was measured every 20 minutes for a desired period of time. Between each measurement, the plate was shaken and heated as described.
The supernatant was filtered through a 0.22 μm filter and an aliquot was transferred to a HPLC vial.
The measurement points were saved in Microsoft Excel format for further processing and curve drawing and fitting was performed using GraphPad Prism.
The data set may be fitted to Eq. (1).

The next series addresses T1, glucagon receptor (Homo sapiens, UniProt P47871).
T1 construct: expressed in transfected cells
The experiment in a line: Assay (I) Glucagon activity: cAMP biosensor (ACTOne) FLIPR assay in HEK-293 cells with cloned glucagon receptor. The series is classed as cell-based. How it is done: The cells (14000 per well) were incubated (37° C., 5% CO2) overnight in 384-well plates. Next day the cells were loaded with a calcium responsive dye that only distributed into the cytoplasm. Probenecid, an inhibitor of the organic anion transporter, was added to prevent the dye from leaving the cell. A PDE inhibitor was added to prevent formatted cAMP from being degraded. […] End point data were collected after 6 minutes. An increase in intracellular cAMP was proportional to an increased in calcium concentrations in the cytoplasm. When calcium was bound the dry a fluorescence signal was generated. EC50-values were calculated in Prism5.

Structures are written as SMILES. Peptide text beside a SMILES is read from it.

T1 sequence (P47871 26-477): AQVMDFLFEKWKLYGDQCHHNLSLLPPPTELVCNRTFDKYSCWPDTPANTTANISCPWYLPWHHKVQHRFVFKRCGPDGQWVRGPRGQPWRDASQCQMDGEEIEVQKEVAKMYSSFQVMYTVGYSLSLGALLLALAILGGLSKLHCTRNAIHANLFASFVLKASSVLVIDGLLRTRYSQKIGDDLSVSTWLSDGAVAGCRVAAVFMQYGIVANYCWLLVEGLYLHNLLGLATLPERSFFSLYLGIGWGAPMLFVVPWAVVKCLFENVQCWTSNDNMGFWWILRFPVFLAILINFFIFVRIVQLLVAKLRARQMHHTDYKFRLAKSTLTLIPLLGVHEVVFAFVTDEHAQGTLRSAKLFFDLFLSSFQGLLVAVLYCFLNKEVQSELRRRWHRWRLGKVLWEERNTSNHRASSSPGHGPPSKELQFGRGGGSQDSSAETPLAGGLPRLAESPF

`CC(C)C[C@H](NC(=O)[C@H](Cc1ccc(O)cc1)NC(=O)[C@H](CCCCN)NC(=O)[C@H](CO)NC(=O)[C@H](Cc1ccc(O)cc1)NC(=O)[C@H](CC(=O)O)NC(=O)[C@H](CO)NC(=O)[C@@H](NC(=O)[C@H](Cc1ccccc1)NC(=O)[C@@H](NC(=O)CNC(=O)[C@H](CCC(N)=O)NC(=O)[C@H](CO)NC(=O)[C@@H](N)Cc1c[nH]cn1)[C@@H](C)O)[C@@H](C)O)C(=O)N[C@@H](CC(=O)O)C(=O)N[C@@H](CO)C(=O)N[C@@H](CCCNC(=N)N)C(=O)N[C@@H](CCCNC(=N)N)C(=O)N[C@@H](C)C(=O)N[C@@H](CCC(N)=O)C(=O)N[C@@H](CC(=O)O)C(=O)N[C@@H](Cc1ccccc1)C(=O)N[C@H](C(=O)N[C@@H](CCC(N)=O)C(=O)N[C@@H](CCCNC(=N)N)C(=O)N[C@@H](CC(C)C)C(=O)N[C@@H](CC(C)C)C(=O)N[C@@H](CC(N)=O)C(=O)N[C@H](C(=O)O)[C@@H](C)O)C(C)C` [Example 5, [Arg^25, Leu^27]-Glucagon]: the Assay (II) (pH 4.0) Lag time (hours) in series [1] is more than 45 hours. Further, the EC50 at glucagon receptor stood at 0.057 nM.

Regarding `CC(C)C[C@H](NC(=O)[C@H](Cc1ccc(O)cc1)NC(=O)[C@H](CCCCN)NC(=O)[C@H](CO)NC(=O)[C@H](Cc1ccc(O)cc1)NC(=O)[C@H](CC(=O)O)NC(=O)[C@H](CO)NC(=O)[C@@H](NC(=O)[C@H](Cc1ccccc1)NC(=O)[C@@H](NC(=O)CNC(=O)[C@H](CCC(N)=O)NC(=O)[C@H](CO)NC(=O)[C@@H](N)Cc1c[nH]cn1)[C@@H](C)O)[C@@H](C)O)C(=O)N[C@@H](CC(=O)O)C(=O)N[C@@H](CO)C(=O)N[C@@H](CCCNC(=N)N)C(=O)N[C@@H](CCCNC(=N)N)C(=O)N[C@@H](C)C(=O)N[C@@H](CCC(N)=O)C(=O)N[C@@H](CC(=O)O)C(=O)N[C@@H](Cc1ccccc1)C(=O)N[C@H](C(=O)N[C@@H](CCC(N)=O)C(=O)N[C@@H](CCCCN)C(=O)N[C@@H](CC(C)C)C(=O)N[C@@H](CC(C)C)C(=O)N[C@@H](CC(N)=O)C(=O)N[C@H](C(=O)O)[C@@H](C)O)C(C)C` [Example 8, [Lys^25, Leu^27]-Glucagon], the Assay (II) (pH 4.0) Lag time (hours) in series [1] is more than 45 hours. For the same compound, at glucagon receptor, a half-maximal response (EC50) required 0.1 nM.

In the case of `CC(C)C[C@H](NC(=O)[C@H](Cc1ccc(O)cc1)NC(=O)[C@H](CCCCN)NC(=O)[C@H](CO)NC(=O)[C@H](Cc1ccc(O)cc1)NC(=O)[C@H](CC(=O)O)NC(=O)[C@H](CO)NC(=O)[C@@H](NC(=O)[C@H](Cc1ccccc1)NC(=O)[C@@H](NC(=O)CNC(=O)[C@H](CCC(N)=O)NC(=O)[C@H](CO)NC(=O)[C@@H](N)Cc1c[nH]cn1)[C@@H](C)O)[C@@H](C)O)C(=O)N[C@@H](CC(=O)O)C(=O)N[C@@H](CO)C(=O)N[C@@H](CCCNC(=N)N)C(=O)N[C@@H](CCCNC(=N)N)C(=O)N[C@@H](C)C(=O)N[C@@H](CCC(N)=O)C(=O)N[C@@H](CCC(=O)O)C(=O)N[C@@H](Cc1ccccc1)C(=O)N[C@H](C(=O)N[C@@H](CCC(N)=O)C(=O)N[C@@H](CCCNC(=N)N)C(=O)N[C@@H](CC(C)C)C(=O)N[C@@H](CC(C)C)C(=O)N[C@@H](CO)C(=O)N[C@H](C(=O)O)[C@@H](C)O)C(C)C` [Example 6, [Glu^21, Arg^25, Leu^27, Ser^28]-Glucagon], in series [1], the Assay (II) (pH 4.0) Lag time (hours) is more than 45 hours. The compound also gave an EC50 on glucagon receptor of 0.026 nM.

In series [1], `CC(C)C[C@H](NC(=O)[C@H](Cc1ccc(O)cc1)NC(=O)[C@H](CCCCN)NC(=O)[C@H](CO)NC(=O)[C@H](Cc1ccc(O)cc1)NC(=O)[C@H](CC(=O)O)NC(=O)[C@H](CO)NC(=O)[C@@H](NC(=O)[C@H](Cc1ccccc1)NC(=O)[C@@H](NC(=O)CNC(=O)[C@H](CCC(N)=O)NC(=O)[C@H](CO)NC(=O)[C@@H](N)Cc1c[nH]cn1)[C@@H](C)O)[C@@H](C)O)C(=O)N[C@@H](CC(=O)O)C(=O)N[C@@H](CO)C(=O)N[C@@H](CCCNC(=N)N)C(=O)N[C@@H](CCCNC(=N)N)C(=O)N[C@@H](C)C(=O)N[C@@H](CCC(N)=O)C(=O)N[C@@H](CCC(=O)O)C(=O)N[C@@H](Cc1ccccc1)C(=O)N[C@H](C(=O)N[C@@H](CCC(N)=O)C(=O)N[C@@H](CCCCN)C(=O)N[C@@H](CC(C)C)C(=O)N[C@@H](CC(C)C)C(=O)N[C@@H](CC(N)=O)C(=O)N[C@H](C(=O)O)[C@@H](C)O)C(C)C` [Example 9, [Glu^21, Lys^25, Leu^27]-Glucagon] displayed an Assay (II) (pH 4.0) Lag time (hours) of more than 45 hours. Besides, the midpoint of the response on glucagon receptor, the EC50, lay at 0.043 nM.

Compound `CC(C)C[C@H](NC(=O)[C@H](Cc1ccc(O)cc1)NC(=O)[C@H](CCCCN)NC(=O)[C@H](CO)NC(=O)[C@H](Cc1ccc(O)cc1)NC(=O)[C@H](CC(=O)O)NC(=O)[C@H](CO)NC(=O)[C@@H](NC(=O)[C@H](Cc1ccccc1)NC(=O)[C@@H](NC(=O)CNC(=O)[C@H](CCC(N)=O)NC(=O)[C@H](CO)NC(=O)[C@@H](N)Cc1c[nH]cn1)[C@@H](C)O)[C@@H](C)O)C(=O)N[C@@H](CC(=O)O)C(=O)N[C@@H](CO)C(=O)N[C@@H](CCCNC(=N)N)C(=O)N[C@@H](CCCNC(=N)N)C(=O)N[C@@H](C)C(=O)N[C@@H](CCC(N)=O)C(=O)N[C@@H](CC(=O)O)C(=O)N[C@@H](Cc1ccccc1)C(=O)N[C@H](C(=O)N[C@@H](CCC(N)=O)C(=O)N[C@@H](CCCNC(=N)N)C(=O)N[C@@H](CC(C)C)C(=O)N[C@@H](CC(C)C)C(=O)N[C@@H](CCC(=O)O)C(=O)N[C@H](C(=O)O)[C@@H](C)O)C(C)C` [Example 11, [Arg^25, Leu^27, Glu^28]-Glucagon] returned an Assay (II) (pH 4.0) Lag time (hours) in series [1] of more than 45 hours. For the same compound, at glucagon receptor, the EC50 turned out to be 0.037 nM.

For `CC(C)C[C@H](NC(=O)[C@H](Cc1ccc(O)cc1)NC(=O)[C@H](CCCCN)NC(=O)[C@H](CO)NC(=O)[C@H](Cc1ccc(O)cc1)NC(=O)[C@H](CC(=O)O)NC(=O)[C@H](CO)NC(=O)[C@@H](NC(=O)[C@H](Cc1ccccc1)NC(=O)[C@@H](NC(=O)CNC(=O)[C@H](CCC(N)=O)NC(=O)[C@H](CO)NC(=O)[C@@H](N)Cc1c[nH]cn1)[C@@H](C)O)[C@@H](C)O)C(=O)N[C@@H](CCC(=O)O)C(=O)N[C@@H](CO)C(=O)N[C@@H](CCCNC(=N)N)C(=O)N[C@@H](CCCNC(=N)N)C(=O)N[C@@H](C)C(=O)N[C@@H](CCC(N)=O)C(=O)N[C@@H](CCC(=O)O)C(=O)N[C@@H](Cc1ccccc1)C(=O)N[C@H](C(=O)N[C@@H](CCC(N)=O)C(=O)N[C@@H](CCCNC(=N)N)C(=O)N[C@@H](CC(C)C)C(=O)N[C@@H](CC(C)C)C(=O)N[C@@H](CC(N)=O)C(=O)N[C@H](C(=O)O)[C@@H](C)O)C(C)C` [Example 10, [Glu^15, Glu^21, Arg^25, Leu^27]-Glucagon] (H-HSQGTFTSDYSKYLESRRAQEFVQRLLNT-OH), the Assay (II) (pH 4.0) Lag time (hours) in series [1] is more than 45 hours. In addition, the midpoint of the response at glucagon receptor, the EC50, lay at 0.266 nM.

On glucagon receptor, `CC(C)C[C@H](NC(=O)[C@H](Cc1ccc(O)cc1)NC(=O)[C@H](CCCCN)NC(=O)[C@H](CO)NC(=O)[C@H](Cc1ccc(O)cc1)NC(=O)[C@H](CC(=O)O)NC(=O)[C@H](CO)NC(=O)[C@@H](NC(=O)[C@H](Cc1ccccc1)NC(=O)[C@@H](NC(=O)CNC(=O)[C@H](CCC(N)=O)NC(=O)[C@H](CO)NC(=O)[C@@H](N)Cc1c[nH]cn1)[C@@H](C)O)[C@@H](C)O)C(=O)N[C@@H](CC(=O)O)C(=O)N[C@@H](CO)C(=O)N[C@@H](CCCNC(=N)N)C(=O)N[C@@H](CCCNC(=N)N)C(=O)N[C@@H](C)C(=O)N[C@@H](CCC(N)=O)C(=O)N[C@@H](CC(=O)O)C(=O)N[C@@H](Cc1ccccc1)C(=O)N[C@H](C(=O)N[C@@H](CCC(N)=O)C(=O)N[C@@H](Cc1ccc(OP(=O)(O)O)cc1)C(=O)N[C@@H](CC(C)C)C(=O)N[C@@H](CC(C)C)C(=O)N[C@@H](CC(N)=O)C(=O)N[C@H](C(=O)O)[C@@H](C)O)C(C)C` [Example 2, [(O-phosphono)Tyr^25,Leu^27]Glucagon] yielded an EC50 of 0.017 nM.

Compound `CC(C)C[C@H](NC(=O)[C@H](Cc1ccc(O)cc1)NC(=O)[C@H](CCCCN)NC(=O)[C@H](CO)NC(=O)[C@H](Cc1ccc(O)cc1)NC(=O)[C@H](CC(=O)O)NC(=O)[C@H](CO)NC(=O)[C@@H](NC(=O)[C@H](Cc1ccccc1)NC(=O)[C@@H](NC(=O)CNC(=O)[C@H](CCC(N)=O)NC(=O)[C@H](CO)NC(=O)[C@@H](N)Cc1c[nH]cn1)[C@@H](C)O)[C@@H](C)O)C(=O)N[C@@H](CC(=O)O)C(=O)N[C@@H](CO)C(=O)N[C@@H](CCCNC(=N)N)C(=O)N[C@@H](CCCNC(=N)N)C(=O)N[C@@H](C)C(=O)N[C@@H](CCC(N)=O)C(=O)N[C@@H](CC(=O)O)C(=O)N[C@@H](Cc1ccccc1)C(=O)N[C@H](C(=O)N[C@@H](CCC(N)=O)C(=O)N[C@@H](Cc1c[nH]cn1)C(=O)N[C@@H](CC(C)C)C(=O)N[C@@H](CC(C)C)C(=O)N[C@@H](CC(N)=O)C(=O)N[C@H](C(=O)O)[C@@H](C)O)C(C)C` [Example 7, [His^25, Leu^27]-Glucagon] yielded an Assay (II) (pH 4.0) Lag time (hours) in series [1] of more than 45 hours. On glucagon receptor, this compound gave an EC50 of 0.019 nM.
